Experimental data from PubChem BioAssay (NCI).
“And” between values parts separate entries of the source, which are not always exact repeats. Equal entries are not always repeated.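 Method: 48-hour compound exposure of cells in 96-well plates, five concentrations, linear interpolation of endpoints. The concentration for 50% growth inhibition is given as GI50. TGI denotes the concentration required for complete inhibition of growth.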

Key:
Assay in all cases: NCI anticancer screen, dose series, 48 h
HOP-62 NSCLC = tested on: HOP-62 NSCLC
HOP-92 NSCLC = tested on: HOP-92 NSCLC
PC-3 prostate = tested on: PC-3 prostate
RPMI-8226 leukemia = tested on: RPMI-8226 leukemia
SF-268 CNS = tested on: SF-268 CNS
SF-539 CNS = tested on: SF-539 CNS
SK-MEL-2 melanoma = tested on: SK-MEL-2 melanoma
SN12C renal = tested on: SN12C renal
T-47D breast = tested on: T-47D breast
UACC-62 melanoma = tested on: UACC-62 melanoma

SMILES	GI50 (HOP-62 NSCLC)	TGI (HOP-62 NSCLC) [µM]	GI50 (HOP-92 NSCLC) [µM]	TGI (HOP-92 NSCLC)	GI50 (PC-3 prostate) [µM]	TGI (PC-3 prostate)	GI50 (RPMI-8226 leukemia) [µM]	TGI (RPMI-8226 leukemia) [µM]	GI50 (SF-268 CNS) [µM]	TGI (SF-268 CNS) [µM]	GI50 (SF-539 CNS)	TGI (SF-539 CNS)	GI50 (SK-MEL-2 melanoma)	TGI (SK-MEL-2 melanoma)	GI50 (SN12C renal)	TGI (SN12C renal) [µM]	GI50 (T-47D breast) [µM]	TGI (T-47D breast) [µM]	GI50 (UACC-62 melanoma)	TGI (UACC-62 melanoma) [µM]
Cc1ccc(Cl)cc1Nc1nc(C(F)(F)F)ccc1C(=O)Oc1ccc(Cl)cc1	8.88 µM	23.1	1.92	14.8 µM	5.85	21.1 µM	28.6	> 100	14	38.7	12 µM	27.1 µM	17.7 µM	> 100 µM	14.5 µM	43.8	6.53	42.2	15.8 µM	38.6
O=C1c2cccc3cccc(c23)C(=O)N1CCCCOc1ccc(-c2nc3ccc(N4CCOCC4)cc3[nH]2)cc1	2.47 µM	5.9	2	4.37 µM	3.16	23.6 µM	1.27	4.39	7.35	> 69.6	1.65 µM	3.47 µM	15.7 µM	53.6 µM	5.56 µM	12.1	3.08	15.9	1.72 µM	3.2
Cn1c(=O)c(F)c(Nc2ccc(I)cc2F)c2c(=O)n(C[C@@H](O)CO)cnc21	0.0545 µM and 0.0151 µM	> 69.7	< 0.01	0.087 µM and 0.179 µM	16.4	71.5 µM and > 4.12 µM	9.12	> 91.8	10.4	> 82.5	3.21 µM and 0.907 µM	22.8 µM and > 4.07 µM	< 0.01 µM and 0.00295 µM	< 0.0252 µM and 0.0277 µM	3.91 µM and 0.487 µM	> 100	18.2	> 96.5	< 0.01 µM and 0.00264 µM	
Cc1c2c(nn1-c1ccc(S/N=C3\SCC(=O)CN3c3ccccc3)cc1)-c1ccccc1CC2	12.7 µM	47.7	> 50	> 50 µM	20.4	> 50 µM	7.85	> 50	20.2	> 50	22.4 µM	> 50 µM	18.2 µM	47 µM	17.8 µM	> 50	24.7	> 50	16 µM	> 50
O=C1NC(=NCCc2ccccc2Cl)S/C1=C\c1ccc2ncccc2c1	6.26 µM	> 25	4	22.2 µM	6.26	> 25 µM	1.83	> 25	4.68	> 25	3.13 µM	13.2 µM	5.86 µM	14 µM	7.72 µM	> 25	7.34	> 25	6.49 µM	> 25
C[n+]1c2ccccc2c(NC2CCNCC2)c2[nH]c3ccccc3c21	0.473 µM	5.17	1.15	6.86 µM	1.53	5.75 µM	0.164	1.17	0.0378	0.773	1.48 µM	6.83 µM	0.207 µM	1.22 µM	0.0324 µM	0.314	0.217	2.04	0.215 µM	1.08
CCOc1ccc2c(c1)/C(=C\C=C\C1CC(C)C3CC(OCC)CCC3N1CC)CC(C)N2CC (centres undefined)	0.755 µM	2.25	1.21	2.58 µM	0.558	2.28 µM	0.269	1.65	0.882	2.41	1.27 µM	2.68 µM	1.66 µM	3.35 µM	0.471 µM	1.81	0.334	2.12	1.26 µM	2.77
Cc1nc2cc(O)c(O)cc2cc1Oc1ccc(NC(=O)Nc2ccc(Cl)c(Cl)c2)cc1	8.62 µM	> 32.5	2.85	16.7 µM	4.36	> 32.5 µM	7.62	20.7	8.45	> 32.5	8.86 µM	22.7 µM	8.83 µM	21.1 µM	8.97 µM	30.3	11.6	> 32.5	5.67 µM	11.2
